Measured values published in ChEMBL document CHEMBL5608163, “Structure modification of anoplin for fighting resistant bacteria” (Eur J Med Chem, 2024).
Converted amounts (≈) assume the structure as drawn. Square brackets hold non-standard residues; d marks the D form. Peptide text beside a SMILES is read from it. 2Nal = N[C@@H](Cc1ccc2ccccc2c1)C(=O)O; hIle = CC[C@H](C)C[C@H](N)C(=O)O

Tests used:
Pseudomonas aeruginosa [1] = test: Antibacterial activity against Pseudomonas aeruginosa ATCC 27853 assessed as reduction in microbial growth incubated for 16 to 20 hrs by CLSI protocol based Muller Hinton broth assay; assay type: functional; details: time 16-20 hrs
Staphylococcus aureus [2] = test: Antibacterial activity against methicillin-resistant Staphylococcus aureus ATCC 33591 assessed as reduction in bacterial growth incubated for 18 hrs by agar dilution method; assay type: functional
Enterococcus faecium = test: Antibacterial activity against vancomycin resistant Enterococcus faecium ATCC 700221 assessed as inhibition of bacterial growth incubated for 48 hrs by CLSI-based broth microdilution assay; assay type: functional
[3] = Hemolytic activity in human RBC assessed as hemolysis measured after 24 hrs; assay type: toxicity, cell-based, Erythrocyte; details: red blood cells
Escherichia coli [4] = test: Antibacterial activity against Escherichia coli ATCC 25922 assessed as reduction in microbial growth incubated for 16 to 20 hrs by CLSI protocol based Muller Hinton broth assay; assay type: functional; details: time 16-20 hrs
[5] = system: Staphylococcus epidermidis; test: Antibacterial activity against Staphylococcus epidermidis ATCC 12228 assessed as reduction in bacterial growth incubated for 18 hrs by CLSI-based Mueller-Hinton broth dilution method; assay type: functional
Klebsiella pneumoniae = test: Antibacterial activity against Klebsiella pneumoniae ATCC 700603 assessed as reduction in bacterial growth incubated for 18 hrs by CLSI-based Mueller-Hinton broth dilution method; assay type: functional
Bacillus subtilis = test: Antibacterial activity against Bacillus subtilis ATCC 23857 assessed as reduction in bacterial growth incubated for 18 hrs by CLSI-based Mueller-Hinton broth dilution method; assay type: functional
Erythrocyte = test: Hemolytic activity in mouse erythrocyte assessed as hemolysis incubated for 1 hr by microplate reader analysis; assay type: toxicity, cell-based
Pseudomonas aeruginosa [6] = test: Antibacterial activity against Pseudomonas aeruginosa ATCC 27853 assessed as reduction in bacterial growth incubated for 18 hrs by CLSI-based Mueller-Hinton broth dilution method; assay type: functional
Escherichia coli [7] = test: Antibacterial activity against Escherichia coli ML-35 ATCC 43837 assessed as reduction in bacterial growth incubated for 18 hrs by CLSI-based Mueller-Hinton broth dilution method; assay type: functional
Staphylococcus aureus [8] = test: Antimicrobial activity against Staphylococcus aureus ATCC 25923 assessed as reduction in microbial growth incubated for 18 hrs by CLSI-based Mueller-Hinton broth dilution method; assay type: functional
Acinetobacter baumannii = test: Antibacterial activity against Acinetobacter baumannii ATCC 19606 assessed as reduction in bacterial growth incubated for 18 hrs by CLSI-based Mueller-Hinton broth dilution method; assay type: functional

| Structure (SMILES) | MIC (Pseudomonas aeruginosa [1]) [µM] | MIC (Staphylococcus aureus [2]) [µM] | MIC (Enterococcus faecium) [µM] | HC50 at 24 h [3] [µM] | MIC (Escherichia coli [4]) [µM] | MIC [5] [µM] | MIC (Klebsiella pneumoniae) [µM] | MIC (Bacillus subtilis) [µM] | HC10 (Erythrocyte) [µM] | MIC (Pseudomonas aeruginosa [6]) [µM] | MIC (Escherichia coli [7]) [µM] | MIC (Staphylococcus aureus [8]) [µM] | MIC (Acinetobacter baumannii) [µM] |
| --- | --- | --- | --- | --- | --- | --- | --- | --- | --- | --- | --- | --- | --- |
| CC[C@H](C)[C@H](NC(=O)[C@H](CCCNC(=N)N)NC(=O)[C@H](CCCCN)NC(=O)[C@H](CC(C)C)NC(=O)[C@H](Cc1ccc2ccccc2c1)NC(=O)CN)C(=O)N[C@@H](CCCCN)C(=O)N[C@H](C(=O)N[C@@H](CC(C)C)C(=O)N[C@@H](CC(C)C)C(N)=O)[C@@H](C)O (H-G[2Nal]LKRIKTLL-NH2) | 9.5 | 15.8 (≈ 19.6 µg/mL) | 15.8 (≈ 19.6 µg/mL) | 52.8 | 15.8 |  |  |  |  |  |  |  |  |
| CCCCCCCCCCCCCCC(=O)NCCCC[C@@H](NC(=O)[C@H](CC(C)C)NC(=O)[C@H](CC(C)C)NC(=O)CN)C(=O)N[C@@H](CCCNC(=N)N)C(=O)N[C@H](C(=O)N[C@H](CCCCN)C(=O)N[C@H](C(=O)N[C@@H](CC(C)C)C(=O)N[C@@H](CC(C)C)C(N)=O)[C@@H](C)O)[C@@H](C)CC |  |  |  |  |  | 4 (≈ 5.51 µg/mL) | 32 (≈ 44.1 µg/mL) | 4 (≈ 5.51 µg/mL) | 32 | 16 (≈ 22 µg/mL) | 8 (≈ 11 µg/mL) | 8 | 8 (≈ 11 µg/mL) |
| CCCCCCCCCCC(=O)NCCCC[C@@H](NC(=O)[C@H](CC(C)C)NC(=O)[C@H](CC(C)C)NC(=O)CN)C(=O)N[C@@H](CCCNC(=N)N)C(=O)N[C@H](C(=O)N[C@H](CCCCN)C(=O)N[C@H](C(=O)N[C@@H](CC(C)C)C(=O)N[C@@H](CC(C)C)C(N)=O)[C@@H](C)O)[C@@H](C)CC |  |  |  |  |  | 2 (≈ 2.64 µg/mL) | 32 (≈ 42.3 µg/mL) | 4 (≈ 5.29 µg/mL) | 256 | 8 (≈ 10.6 µg/mL) | 8 (≈ 10.6 µg/mL) | 8 | 16 (≈ 21.1 µg/mL) |
| CC[C@H](C)C[C@H](NC(=O)[C@H](CCCNC(=N)N)NC(=O)[C@H](CCCCN)NC(=O)[C@H](CC(C)C)NC(=O)[C@H](CC(C)C)NC(=O)CN)C(=O)N[C@@H](CCCCN)C(=O)N[C@H](C(=O)N[C@@H](Cc1ccc2ccccc2c1)C(=O)N[C@@H](CC(C)C)C(N)=O)[C@@H](C)O (H-GLLKR[hIle]KT[2Nal]L-NH2) | 28.4 | 28.4 (≈ 35.5 µg/mL) | 8.8 (≈ 11 µg/mL) | 149 | 15.8 |  |  |  |  |  |  |  |  |
| CC[C@H](C)C[C@H](NC(=O)[C@H](CCCNC(=N)N)NC(=O)[C@H](CCCCN)NC(=O)[C@H](CC(C)C)NC(=O)[C@H](CC(C)C)NC(=O)CN)C(=O)N[C@@H](CCCCN)C(=O)N[C@H](C(=O)N[C@@H](CC(C)C)C(=O)N[C@@H](Cc1ccc2ccccc2c1)C(N)=O)[C@@H](C)O (H-GLLKR[hIle]KTL[2Nal]-NH2) | 9.5 | 28.4 (≈ 35.5 µg/mL) | 9.5 (≈ 11.9 µg/mL) | 18 | 22.1 |  |  |  |  |  |  |  |  |
| CCCCCCCCCCC(=O)NCCCC[C@@H](NC(=O)[C@@H](NC(=O)[C@H](CCCNC(=N)N)NC(=O)[C@@H](CCCCN)NC(=O)[C@H](CC(C)C)NC(=O)[C@H](CC(C)C)NC(=O)CN)[C@@H](C)CC)C(=O)N[C@H](C(=O)N[C@@H](CC(C)C)C(=O)N[C@@H](CC(C)C)C(N)=O)[C@@H](C)O |  |  |  |  |  | 4 (≈ 5.29 µg/mL) | 8 (≈ 10.6 µg/mL) | 2 (≈ 2.64 µg/mL) | 128 | 4 (≈ 5.29 µg/mL) | 4 (≈ 5.29 µg/mL) | 8 | 4 (≈ 5.29 µg/mL) |
| CCCCC(=O)NCCCC[C@@H](NC(=O)[C@H](CC(C)C)NC(=O)[C@H](CC(C)C)NC(=O)CN)C(=O)N[C@@H](CCCNC(=N)N)C(=O)N[C@H](C(=O)N[C@H](CCCCN)C(=O)N[C@H](C(=O)N[C@@H](CC(C)C)C(=O)N[C@@H](CC(C)C)C(N)=O)[C@@H](C)O)[C@@H](C)CC |  |  |  |  |  | > 128 | > 128 | > 128 | > 256 | > 128 | > 128 | > 128 | > 128 |
| CCCCCCCCC(=O)NCCCC[C@@H](NC(=O)[C@H](CC(C)C)NC(=O)[C@H](CC(C)C)NC(=O)CN)C(=O)N[C@@H](CCCNC(=N)N)C(=O)N[C@H](C(=O)N[C@H](CCCCN)C(=O)N[C@H](C(=O)N[C@@H](CC(C)C)C(=O)N[C@@H](CC(C)C)C(N)=O)[C@@H](C)O)[C@@H](C)CC |  |  |  |  |  | 8 (≈ 10.4 µg/mL) | 128 (≈ 166 µg/mL) | 4 (≈ 5.18 µg/mL) | > 256 | 32 (≈ 41.4 µg/mL) | 32 (≈ 41.4 µg/mL) | 16 | 32 (≈ 41.4 µg/mL) |
| CCCCCCCCCCCCCCCCC(=O)NCCCC[C@@H](NC(=O)[C@H](CC(C)C)NC(=O)[C@H](CC(C)C)NC(=O)CN)C(=O)N[C@@H](CCCNC(=N)N)C(=O)N[C@H](C(=O)N[C@H](CCCCN)C(=O)N[C@H](C(=O)N[C@@H](CC(C)C)C(=O)N[C@@H](CC(C)C)C(N)=O)[C@@H](C)O)[C@@H](C)CC |  |  |  |  |  | 64 (≈ 90 µg/mL) | 128 (≈ 180 µg/mL) | 8 (≈ 11.2 µg/mL) | > 16 | 64 (≈ 90 µg/mL) | 64 (≈ 90 µg/mL) | 32 | 16 (≈ 22.5 µg/mL) |
